For one test, the system named is influenza A endonuclease. The settings on record: earlier studies with phenyl substituted 3-hydroxypyridin-2(1H)-ones; cited from earlier work.
For test [1], the target named is Influenza A endonuclease (pandemic H1N1 endonuclease, residues 1–204) (Influenza A virus, UniProt C3W5S0). Type of test: biochemical.

The values below come from publication PMC4191602 (Journal of Medicinal Chemistry, 2014).

With `O=c1[nH]ccc(-c2ccc(F)cc2)c1O` [4-(4-fluorophenyl)-3-hydroxypyridin-2(1H)one], the “activity as endonuclease inhibitor (in words)” value with influenza A endonuclease is given as “did not exhibit significant activity”.
As to `O=c1[nH]cc(-c2ccc(F)cc2)[nH]c1=O` [compound 1, 5-(4-Fluorophenyl)pyrazine-2,3(1H,4H)-dione], in test [1], the “activity as an endonuclease inhibitor (in words)” value is recorded as “comparatively weak activity” and the “less potent than either 5- or 6-(4-fluorophenyl)-3-hydroxypyridin-2(1H)-one” value was “more than 80 times”.
For the compound `O=c1[nH]cnc(-c2ccc(F)cc2)c1O` [compound 2, 6-(4-Fluorophenyl)-5-hydroxypyrimidin-4(3H)-one], in test [1], the “activity as an endonuclease inhibitor (in words)” value is on record as “lack of activity”.
Take `N#Cc1cccc(-c2ncc(O)c(=O)[nH]2)c1` [compound 10, 3-(5-Hydroxy-6-oxo-1,6-dihydropyrimidin-2-yl)benzonitrile]: the “potency compared to the 4-cyanophenyl isomer 9” value in test [1] is recorded as “approximately twice as potent”.
As for `O=c1[nH]c(-c2ccc(-c3nnn[nH]3)cc2)ncc1O` [compound 11, 2-(4-(1H-Tetrazol-5-yl)phenyl)-5-hydroxypyrimidin-4(3H)-one], in test [1], the “potency relative to the 3-(tetrazoly)phenyl derivative 12” value worked out at 3 fold.
On to `O=c1[nH]ncc(-c2ccc(F)cc2)c1O` [compound 13, 5-(4-Fluorophenyl)-4-hydroxypyridazin-3(2H)-one], for which the “activity as an endonuclease inhibitor (in words)” value in test [1] was “did not exhibit significant activity”.
